Measured values from patent US4723004A, “Cephem compounds” (priority 1984, dated 1988).
Entries after “also recorded” stand apart in the source; their conditions may differ. Where two headings read alike, the source gives them in different places.

What was measured:
Escherichia coli PG8 = test: Stability to β-lactamases, disc method, non-added control (Table 2); type: cell-based; details: PG8, read-out: Diameter of growth inhibition zone (by the disc method)
Experimental: (§1) Note: Used concentration of the compound; 100 µg/ml Employed strain;
(§2) Escherichia coli PG8 Culture medium; Nutrient agar medium (pH 7.0)
(§3) containing diaminopimelic acid (20 mg/l)

Penicillinase [1] = target: T1, Penicillinase (Bacillus cereus, UniProt P10424); test: Stability to β-lactamases, disc method, penicillinase (Table 2); type: cell-based; details: penicillinase 0.048 unit/ml; E. coli PG8; compound 100 g/ml (so in the source)
T1 construct: purchased Calbio Chemical, U.S.A; host or cells: Bacillus cereus
Experimental: as §1, §2, §3
(Note 2) Penicillinase derived from Bacillus cereus (produced by Calbio
Chemical, U.S.A.)0.048 unit/ml.

Cephalosporinase [2] = target: T2, Cephalosporinase (Enterobacter cloacae, UniProt P05364); test: Stability to β-lactamases, disc method, cephalosporinase (Table 2); type: cell-based; details: cephalosporinase 0.025 unit/ml; E. coli PG8; compound 100 g/ml (so in the source)
T2 construct: host or cells: Enterobacter cloacae
Experimental: as §1, §2, §3
(Note 3) Cephalosprinase is derived from Enterobacter cloacae, 0.025

[3] = tested on: Pseudomonas aeruginosa C141; test: Stability to β-lactamases, disc method, non-added control (Table 5); type: cell-based; details: read-out: Diameter of growth inhibition zone (by the disc method); for zone of inhibition at 100 µg/mL: P. aeruginosa C141, other compounds 100 μg/ml
Experimental: (§4) Concentration of the compound (II) 1000 μg/ml
(§5) Concentration of the other compounds: 100 μg/ml
(§6) Strain used: Pseudomonas aeruginosa C141
(§7) Culture medium: Nutrient agar medium (pH 7.0) containing diaminopimeric

Penicillinase [4] = target: T1, Penicillinase; test: Stability to β-lactamases, disc method, penicillinase (Table 5); type: cell-based; details: penicillinase 0.048 unit/ml, P. aeruginosa C141
Experimental: as §4, §5, §6, §7
(Note 3) Penicillinase (Calbio Chemical, U.S.A.) derived from Bacillus

Cephalosporinase [5] = target: T2, Cephalosporinase; test: Stability to β-lactamases, disc method, cephalosporinase (Table 5); type: cell-based; details: cephalosporinase 0.025 unit/ml, P. aeruginosa C141
Experimental: as §4, §5, §6, §7
(Note 4) The enzyme is derived from Enterobacter cloacae, 0.025 unit/ml.

[6] = Stability in aqueous solution; type: physicochemical; details: for Stability: hydrochloride(s)
[7] = tested on: Alcaligenes faecalis IFO 13111; test: MIC, antibacterial spectrum (nutrient agar); type: cell-based; details: IFO13111, nutrient agar pH 7.0, 10^6 CFU/ml, sodium salt, read-out: Minimal inhibitory concentration
Source text: (§8) | Culture medium: Nutrient agar (pH 7.0) concentration of microorganisms | inoculated: 10^6 CFU (colony forming unit)/ml.

[8] = tested on: Bacillus megaterium IFO 12108; test: MIC, antibacterial spectrum (nutrient agar); type: cell-based; details: Priestia megaterium, IFO12108, nutrient agar pH 7.0, 10^6 CFU/ml, sodium salt, read-out: Minimal inhibitory concentration
Source text: as §8

[9] = tested on: Bacillus subtilis NIHJ PCI219; test: MIC, antibacterial spectrum (nutrient agar); type: cell-based; details: NIHJPCI219, nutrient agar pH 7.0, 10^6 CFU/ml, sodium salt, read-out: Minimal inhibitory concentration
Source text: as §8

[10] = tested on: Escherichia coli NIHJ JC-2; test: MIC, antibacterial spectrum (nutrient agar); type: cell-based; details: NIHJJC2, nutrient agar pH 7.0, 10^6 CFU/ml, sodium salt, read-out: Minimal inhibitory concentration
Source text: as §8

[11] = tested on: Klebsiella pneumoniae IFO 3317; test: MIC, antibacterial spectrum (nutrient agar); type: cell-based; details: IFO3317, nutrient agar pH 7.0, 10^6 CFU/ml, sodium salt, read-out: Minimal inhibitory concentration
Source text: as §8

[12] = tested on: Proteus mirabilis ATCC 21100; test: MIC, antibacterial spectrum (nutrient agar); type: cell-based; details: ATCC21100, nutrient agar pH 7.0, 10^6 CFU/ml, sodium salt, read-out: Minimal inhibitory concentration
Source text: as §8

[13] = tested on: Proteus vulgaris IFO 3988; test: MIC, antibacterial spectrum (nutrient agar); type: cell-based; details: IFO3988, nutrient agar pH 7.0, 10^6 CFU/ml, sodium salt, read-out: Minimal inhibitory concentration
Source text: as §8

[14] = tested on: Pseudomonas aeruginosa IFO 3080; test: MIC, antibacterial spectrum (nutrient agar); type: cell-based; details: IFO3080, nutrient agar pH 7.0, 10^6 CFU/ml, sodium salt, read-out: Minimal inhibitory concentration
Source text: as §8

[15] = tested on: Salmonella typhimurium IFO 12529; test: MIC, antibacterial spectrum (nutrient agar); type: cell-based; details: Salmonella enterica, nutrient agar pH 7.0, 10^6 CFU/ml, sodium salt, read-out: Minimal inhibitory concentration
Source text: as §8

[16] = tested on: Serratia marcescens IFO 12648; test: MIC, antibacterial spectrum (nutrient agar); type: cell-based; details: IFO12648, nutrient agar pH 7.0, 10^6 CFU/ml, sodium salt, read-out: Minimal inhibitory concentration
Source text: as §8

[17] = tested on: Staphylococcus aureus FDA 209P; test: MIC, antibacterial spectrum (nutrient agar); type: cell-based; details: FDA209P, nutrient agar pH 7.0, 10^6 CFU/ml, sodium salt, read-out: Minimal inhibitory concentration
Source text: as §8

[18] = Acute toxicity, subcutaneous administration to mice; type: in vivo; details: for toxicity: conclusion from 1 g/kg s.c. in mice; for death: mice, subcutaneous, 1 g/kg, sodium salt
β-lactamases = test: Stability to β-lactamases (statement in words); type: cell-based
gram-positive bacteria = test: Antibacterial activity against gram-positive bacteria (statement in words); type: cell-based
gram-negative bacteria = test: Antibacterial activity against gram-negative bacteria (statement in words); type: cell-based
Solubility = details: sodium salt
Escherichia coli CP 13 = test: Antibacterial spectrum, growth inhibition zone (Table 4); type: cell-based; details: CP13, E. coli CP 13, compound (II) 1000 μg/ml, pH 7.0, sodium salt, read-out: Diameter of growth inhibition zone
Experimental: as §7
(§9) Concentration of the compound (II): 1000 μg/ml.

[19] = tested on: Pseudomonas aeruginosa C141; test: as above; type: cell-based; details: compound (II) 1000 μg/ml, pH 7.0, sodium salt, read-out: Diameter of growth inhibition zone
Experimental: as §7, §9

[20] = tested on: Staphylococcus aureus FDA 209P; test: as above; type: cell-based; details: FDA209P, compound (II) 1000 μg/ml, pH 7.0, sodium salt, read-out: Diameter of growth inhibition zone
Experimental: as §7, §9

T1 sequence (P10424 44-306): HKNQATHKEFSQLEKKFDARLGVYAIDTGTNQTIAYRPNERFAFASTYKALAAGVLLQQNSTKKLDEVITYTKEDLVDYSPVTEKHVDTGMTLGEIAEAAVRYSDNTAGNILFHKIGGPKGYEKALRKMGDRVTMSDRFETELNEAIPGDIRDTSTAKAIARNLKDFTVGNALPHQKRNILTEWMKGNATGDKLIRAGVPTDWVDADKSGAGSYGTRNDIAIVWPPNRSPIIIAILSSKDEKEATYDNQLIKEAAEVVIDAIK
T2 sequence (P05364 21-381): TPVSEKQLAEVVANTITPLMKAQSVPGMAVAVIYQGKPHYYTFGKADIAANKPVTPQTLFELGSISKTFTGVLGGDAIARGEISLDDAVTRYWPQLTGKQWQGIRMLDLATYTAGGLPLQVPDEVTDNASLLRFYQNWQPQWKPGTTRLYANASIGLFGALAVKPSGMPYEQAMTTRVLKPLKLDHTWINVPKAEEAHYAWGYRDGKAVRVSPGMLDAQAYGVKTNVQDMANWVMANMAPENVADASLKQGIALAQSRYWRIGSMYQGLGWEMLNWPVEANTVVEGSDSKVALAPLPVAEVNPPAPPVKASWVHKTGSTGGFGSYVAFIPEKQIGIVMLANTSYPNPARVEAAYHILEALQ

Compound: CO[C@@]1(NC(=O)CCC[C@@H](N)C(=O)O)C(=O)N2C(C(=O)O)=C(COC(N)=O)CS[C@@H]21 [CMC, Cephamycin C]
- zone of inhibition at 100 µg/mL (Escherichia coli PG8): 30 mm
- Diameter of growth inhibition zone (by the disc method) (Penicillinase [1]): 30 mm
- Diameter of growth inhibition zone (by the disc method) (Cephalosporinase [2]): < 8 mm
- zone of inhibition at 100 µg/mL [3]: 27.5 mm
- Diameter of growth inhibition zone (by the disc method) (Penicillinase [4]; other compounds 100 μg/ml): 27.5 mm
- Diameter of growth inhibition zone (by the disc method) (Cephalosporinase [5]; other compounds 100 μg/ml): < 8 mm

Compound: CC(N)C(=O)NC(C)C(=O)NC(C)C(=O)NC(CCCNC(=N)N)C(O)CC(=O)OCC1=C(C(=O)O)N2C(=O)[C@@H](NC(=O)CCCC(N)C(=O)O)C2SC1 (stereo partly drawn) [TAN-547F]
- Stability ([6]; acidic aqueous solution): Slightly unstable
- Stability ([6]; basic aqueous solution): Unstable
- Stability ([6]; neutral aqueous solution): Slightly unstable

Compound: NC(CCCC(=O)N[C@]1(NC=O)C(=O)N2C(C(=O)O)=C(CO)CSC21)C(=O)O (stereo partly drawn) [7-FA-DCPC, 7-formylamino-deacetylcephalosporin C]
- MIC [7]: 12.5 µg/mL
- MIC [8]: 100 µg/mL
- MIC [9]: 100 µg/mL
- MIC [10]: 50 µg/mL
- MIC [11]: 50 µg/mL
- MIC [12]: 12.5 µg/mL
- MIC [13]: 25 µg/mL
- MIC [14]: 100 µg/mL
- MIC [15]: 25 µg/mL
- MIC [16]: 25 µg/mL
- MIC [17]: 100 µg/mL
- zone of inhibition at 100 µg/mL (Escherichia coli PG8): 23 mm
- Diameter of growth inhibition zone (by the disc method) (Penicillinase [1]): 23 mm
- Diameter of growth inhibition zone (by the disc method) (Cephalosporinase [2]): 23 mm
- toxicity [18]: low toxicity
- death [18]: no death was observed
- Stability to β-lactamases (β-lactamases): stable to various β-lactamases
- Stability to β-lactamases (β-lactamases; listed as compound (IV)): stable to β-lactamase producing strains
- antibacterial activity (gram-positive bacteria): exhibits antibacterial activity
- antibacterial activity (gram-positive bacteria; listed as compound (IV)): exhibits antimicrobial activity
- antibacterial activity (gram-negative bacteria): exhibits antibacterial activity
- antibacterial activity (gram-negative bacteria; listed as compound (IV)): exhibits antimicrobial activity
- Solubility (Solubility; diethyl ether and ethyl acetate): Sparingly soluble
- Solubility (Solubility; methanol): Soluble
- Solubility (Solubility; water): Readily soluble

Compound: N[C@]1(NC=O)C(=O)N2C(C(=O)O)=C(CO)CSC21 (stereo partly drawn) [compound (II)]
- toxicity [18]: low toxicity
- death [18]: no death was observed
- zone of inhibition at 1000 µg/mL (Escherichia coli CP 13): 11 mm
- zone of inhibition at 1000 µg/mL [19]: 19 mm
- zone of inhibition at 1000 µg/mL [20]: < 8 mm
- zone of inhibition at 1000 µg/mL ([3]; P. aeruginosa C141, compound (II) 1000 μg/ml): 19 mm
- Diameter of growth inhibition zone (by the disc method) (Penicillinase [4]; compound (II) 1000 μg/ml): 19 mm
- Diameter of growth inhibition zone (by the disc method) (Cephalosporinase [5]; compound (II) 1000 μg/ml): 19 mm
- Stability to β-lactamases (β-lactamases): stable to various β-lactamases
- antibacterial activity (gram-negative bacteria): exhibits antibacterial activity; also recorded: exhibits antimicrobial activity
- stability in aqueous solution ([6]; compared with a cephem compound which is acetylated (--CH2OCOCH3 at 3-position)): remarkably more stable in aqueous solution

Compound: CC(N)C(=O)NC(CCCNC(=N)N)C(O)CC(=O)OCC1=C(C(=O)O)N2C(=O)[C@@](NC=O)(NC(=O)CCCC(N)C(=O)O)C2SC1 (stereo partly drawn) [TAN-547A]
- Stability ([6]; acidic aqueous solution): Unstable
- Stability ([6]; basic aqueous solution): Unstable
- Stability ([6]; neutral aqueous solution): slightly unstable

Compound: CC(N)C(=O)NC(C)C(=O)NC(CCCNC(=N)N)C(O)CC(=O)OCC1=C(C(=O)O)N2C(=O)[C@@H](NC(=O)CCCC(N)C(=O)O)C2SC1 (stereo partly drawn) [TAN-547E]
- Stability ([6]; acidic aqueous solution): Slightly unstable
- Stability ([6]; basic aqueous solution): Unstable
- Stability ([6]; neutral aqueous solution): Slightly unstable

Compound: CC(N)C(=O)NC(CCCNC(=N)N)C(O)CC(=O)OCC1=C(C(=O)O)N2C(=O)[C@@H](NC(=O)CCCC(N)C(=O)O)C2SC1 (stereo partly drawn) [TAN-547D]
- Stability ([6]; acidic aqueous solution): Slightly unstable
- Stability ([6]; basic aqueous solution): Unstable
- Stability ([6]; neutral aqueous solution): Slightly unstable

Compound: N[C@H](CCCC(=O)N[C@@H]1C(=O)N2C(C(=O)O)=C(CO)CS[C@H]12)C(=O)O [DCPC, deacetylcephalosporin C]
- zone of inhibition at 100 µg/mL (Escherichia coli PG8): 30 mm
- Diameter of growth inhibition zone (by the disc method) (Penicillinase [1]): 30 mm
- Diameter of growth inhibition zone (by the disc method) (Cephalosporinase [2]): < 8 mm
- zone of inhibition at 100 µg/mL [3]: 30 mm
- Diameter of growth inhibition zone (by the disc method) (Penicillinase [4]; other compounds 100 μg/ml): 30 mm
- Diameter of growth inhibition zone (by the disc method) (Cephalosporinase [5]; other compounds 100 μg/ml): < 8 mm

Compound: CC(N)C(=O)NC(C)C(=O)NC(C)C(=O)NC(CCCNC(=N)N)C(O)CC(=O)OCC1=C(C(=O)O)N2C(=O)[C@@](NC=O)(NC(=O)CCCC(N)C(=O)O)C2SC1 (stereo partly drawn) [TAN-547C]
- Stability ([6]; acidic aqueous solution): Unstable
- Stability ([6]; basic aqueous solution): Unstable
- Stability ([6]; neutral aqueous solution): slightly unstable

Compound: CC(N)C(=O)NC(C)C(=O)NC(CCCNC(=N)N)C(O)CC(=O)OCC1=C(C(=O)O)N2C(=O)[C@@](NC=O)(NC(=O)CCCC(N)C(=O)O)C2SC1 (stereo partly drawn) [TAN-547B]
- Stability ([6]; acidic aqueous solution): Unstable
- Stability ([6]; basic aqueous solution): Unstable
- Stability ([6]; neutral aqueous solution): slightly unstable
